Results on 30 compounds are retold here after ChEMBL document CHEMBL5506036, “Exploring the Structural Attributes of Yoda1 for the Development of New-Generation Piezo1 Agonist Yaddle1 as a Vaccine Adjuvant Targeting Optimal T Cell Activation” (J Med Chem, 2024).

pEC50: −log10 of the molar value. ≈ marks a conversion by molar mass, not a printed value. Where only a bound is given, the exact number is not on record here.

In data set [1] the target is T1, Piezo-type mechanosensitive ion channel component 1 (Homo sapiens, UniProt Q92508). Description: Agonist activity at human PIEZO1 overexpressing HEK293-A cells co-expressing mCherry-piezo1 assessed as fold change in calcium influx at 0.1 uM by fluo-3 based real-time flow cytometric analysis. Type of data set: cell-based. (In general: In flow cytometry, cells or beads pass a laser one at a time.)

In data set [2] the target is T1, Piezo-type mechanosensitive ion channel component 1. Description: Agonist activity at human PIEZO1 overexpressing HEK293-A cells co-expressing mCherry-piezo1 assessed as fold change in calcium influx at 0.5 uM by fluo-3 based real-time flow cytometric analysis. Type of data set: cell-based.
For data set [3] the target is unchanged. Description: Agonist activity at human PIEZO1 overexpressing HEK293-A cells co-expressing mCherry-piezo1 assessed as fold change in calcium influx at 1 uM by fluo-3 based real-time flow cytometric analysis. Type of data set: cell-based.
For data set [4] the target is unchanged. Description: Agonist activity at human PIEZO1 overexpressing HEK293-A cells co-expressing mCherry-piezo1 assessed as fold change in calcium influx at 5 uM by fluo-3 based real-time flow cytometric analysis. In kind it is cell-based.
For data set [5] the target is unchanged. Nature of the data set: Agonist activity at human PIEZO1 overexpressing HEK293-A cells co-expressing mCherry-piezo1 assessed as fold change in calcium influx at 10 uM by fluo-3 based real-time flow cytometric analysis. Type of data set: cell-based.
Data set [6] shares this target. Nature of the data set: Agonist activity at human PIEZO1 overexpressing HEK293-A cells co-expressing mCherry-piezo1 assessed as fold change in calcium influx at 15 uM by fluo-3 based real-time flow cytometric analysis. Type of data set: cell-based.
Data set [7] shares this target. Description: Agonist activity at human PIEZO1 overexpressing HEK293-A cells co-expressing mCherry-piezo1 assessed as fold change in calcium influx at 20 uM by fluo-3 based real-time flow cytometric analysis. In kind it is cell-based.
For data set [8] the target is unchanged. Description: Agonist activity at human PIEZO1 overexpressing HEK293-A cells co-expressing mCherry-piezo1 assessed as induction of calcium influx by fluo-3 based real-time flow cytometric analysis. In kind it is cell-based.
Data set [9] has the same target. Description: Agonist activity at human PIEZO1 overexpressing HEK293-A cells co-expressing mCherry-piezo1 assessed as induction of calcium influx by measuring maximum efficacy in fold change by fluo-3 based real-time flow cytometric analysis. In kind it is cell-based. Particulars: filed as agonist.
Data set [10] has the same target. Nature of the data set: Agonist activity at PIEZO1 in human CD4+ T cell assessed as fold increase in intracellular calcium influx measured for 30 mins by flow cytometry analysis. Type of data set: cell-based. For orientation: Calcium flux is commonly read through the fluorescence of an indicator in the cells.
A short description of data set [11]: Kinetic aqueous solubility of compound in PBS at pH 7.4 measured after 24 hrs by HPLC-UV analysis. Type of data set: physicochemical. The following applies: read-out: Kinetic_solubility.

T1 sequence (Q92508 whole entry): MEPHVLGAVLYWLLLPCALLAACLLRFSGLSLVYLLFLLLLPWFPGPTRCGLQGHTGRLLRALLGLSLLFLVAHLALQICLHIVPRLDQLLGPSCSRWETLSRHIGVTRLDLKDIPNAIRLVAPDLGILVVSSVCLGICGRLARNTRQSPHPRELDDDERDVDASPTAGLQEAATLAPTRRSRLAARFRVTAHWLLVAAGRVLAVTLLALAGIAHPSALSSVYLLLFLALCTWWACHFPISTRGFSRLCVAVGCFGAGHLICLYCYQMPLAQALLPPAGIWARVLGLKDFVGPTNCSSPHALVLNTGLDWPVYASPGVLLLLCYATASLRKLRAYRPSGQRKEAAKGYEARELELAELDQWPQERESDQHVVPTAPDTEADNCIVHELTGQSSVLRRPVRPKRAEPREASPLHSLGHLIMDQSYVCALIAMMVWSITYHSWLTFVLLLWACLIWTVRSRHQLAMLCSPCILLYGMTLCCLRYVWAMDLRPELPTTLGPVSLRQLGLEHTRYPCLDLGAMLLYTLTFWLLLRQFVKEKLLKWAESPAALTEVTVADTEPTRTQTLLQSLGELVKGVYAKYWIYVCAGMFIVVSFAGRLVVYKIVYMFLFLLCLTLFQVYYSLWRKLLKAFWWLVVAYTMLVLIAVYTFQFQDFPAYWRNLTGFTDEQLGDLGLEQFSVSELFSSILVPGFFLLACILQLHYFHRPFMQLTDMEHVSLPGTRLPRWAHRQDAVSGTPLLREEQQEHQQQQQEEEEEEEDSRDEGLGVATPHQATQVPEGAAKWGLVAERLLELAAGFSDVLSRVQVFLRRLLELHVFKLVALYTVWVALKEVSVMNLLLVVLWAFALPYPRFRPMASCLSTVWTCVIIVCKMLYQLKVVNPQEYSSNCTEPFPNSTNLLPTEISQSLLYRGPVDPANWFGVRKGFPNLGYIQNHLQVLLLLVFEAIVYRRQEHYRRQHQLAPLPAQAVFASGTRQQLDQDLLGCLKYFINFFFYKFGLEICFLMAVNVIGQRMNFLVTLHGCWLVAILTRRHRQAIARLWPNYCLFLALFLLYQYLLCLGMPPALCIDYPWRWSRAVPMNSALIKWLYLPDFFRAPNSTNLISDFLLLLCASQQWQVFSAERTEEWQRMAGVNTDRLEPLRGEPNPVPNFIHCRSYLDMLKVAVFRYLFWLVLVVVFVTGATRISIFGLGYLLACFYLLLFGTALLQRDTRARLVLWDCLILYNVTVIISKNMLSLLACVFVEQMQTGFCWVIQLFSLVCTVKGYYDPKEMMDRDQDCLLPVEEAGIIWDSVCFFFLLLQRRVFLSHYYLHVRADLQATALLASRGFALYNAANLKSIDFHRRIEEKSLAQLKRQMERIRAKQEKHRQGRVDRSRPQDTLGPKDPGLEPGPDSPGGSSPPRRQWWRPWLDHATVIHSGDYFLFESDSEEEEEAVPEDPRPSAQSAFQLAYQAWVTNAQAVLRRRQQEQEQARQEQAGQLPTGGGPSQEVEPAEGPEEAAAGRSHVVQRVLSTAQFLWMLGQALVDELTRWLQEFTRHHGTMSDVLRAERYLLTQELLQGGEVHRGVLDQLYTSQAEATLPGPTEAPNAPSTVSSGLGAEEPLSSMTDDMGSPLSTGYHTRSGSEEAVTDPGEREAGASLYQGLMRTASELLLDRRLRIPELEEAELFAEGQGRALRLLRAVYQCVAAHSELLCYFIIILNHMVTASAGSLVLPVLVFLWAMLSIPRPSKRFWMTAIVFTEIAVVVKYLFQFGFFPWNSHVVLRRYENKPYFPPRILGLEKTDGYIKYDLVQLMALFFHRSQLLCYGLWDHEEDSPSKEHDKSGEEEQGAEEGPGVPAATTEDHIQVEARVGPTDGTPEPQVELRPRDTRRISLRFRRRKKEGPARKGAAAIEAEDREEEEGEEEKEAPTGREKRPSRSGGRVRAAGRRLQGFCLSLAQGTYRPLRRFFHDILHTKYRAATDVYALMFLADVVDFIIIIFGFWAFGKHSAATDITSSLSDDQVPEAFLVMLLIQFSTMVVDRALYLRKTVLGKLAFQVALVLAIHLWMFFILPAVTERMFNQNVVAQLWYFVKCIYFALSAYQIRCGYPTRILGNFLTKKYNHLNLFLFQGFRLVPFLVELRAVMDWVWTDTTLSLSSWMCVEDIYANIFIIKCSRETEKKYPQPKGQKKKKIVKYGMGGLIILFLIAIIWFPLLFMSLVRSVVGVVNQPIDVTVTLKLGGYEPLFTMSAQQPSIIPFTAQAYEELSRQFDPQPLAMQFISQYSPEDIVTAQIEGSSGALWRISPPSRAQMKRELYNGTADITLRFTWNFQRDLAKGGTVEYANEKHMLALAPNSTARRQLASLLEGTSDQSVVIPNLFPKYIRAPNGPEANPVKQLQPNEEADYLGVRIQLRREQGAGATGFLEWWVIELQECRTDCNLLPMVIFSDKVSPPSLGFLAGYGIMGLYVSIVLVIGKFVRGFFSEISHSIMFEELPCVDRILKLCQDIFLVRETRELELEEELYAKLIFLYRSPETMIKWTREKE

Take `O=c1oc(-c2cnccn2)nn1Cc1c(Cl)cccc1Cl`: the fold change (FC) in data set [1], in data set [2], in data set [3], in [4], in data set [5] and in data set [6] was less than 1.2 throughout. For the same compound, the fold change (FC) in data set [7] is less than 1.2.

Take `Fc1ccccc1CSc1nnc(-c2cnccn2)o1`: the fold change (FC) in data set [6] and in data set [7] was less than 1.2 each time.

`Clc1ccc(Cl)c(CSc2nnc(-c3cnccn3)o2)c1`: the fold change (FC) is less than 1.2 in data set [1]; less than 1.2 in [2]; less than 1.2 in data set [3]; less than 1.2 in data set [4]; more than 1.2 in [5]; more than 1.2 in data set [6]. For the same compound, the fold change (FC) is more than 1.2 in data set [7] and 1.25 in data set [9]. Also, the pEC50 in [8] is 6.24.

As for `O=[N+]([O-])c1ccccc1CSc1nnc(-c2cnccn2)o1`, the fold change (FC) in data set [6] and in data set [7] was less than 1.2 each time.

With `Clc1ccccc1CSc1nnc(-c2cnccn2)o1`, the fold change (FC) in [6] and in data set [7] was less than 1.2 throughout.

Regarding `FC(F)(F)c1ccc(Cl)c(CSc2nnc(-c3cnccn3)o2)c1`, the fold change (FC) in [1] was less than 1.2; in data set [2] it was more than 1.2; in [3] it was more than 1.2; in data set [4] it was more than 1.2; in [5], more than 1.2; in data set [6], more than 1.2. Besides, the fold change (FC) in [7] is more than 1.2; in data set [9] it was 2.3. For the same compound, the pEC50 in data set [8] was 6.06.

On to `c1ccc(CSc2nnc(-c3cnccn3)o2)cc1`, for which the fold change (FC) in [6] and in data set [7] was less than 1.2 each time.

Regarding `FC(F)(F)c1ccc(Cl)cc1CSc1nnc(-c2cnccn2)o1`, the fold change (FC) is less than 1.2 in [1]; more than 1.2 in data set [2]; more than 1.2 in data set [3]; more than 1.2 in data set [4]; more than 1.2 in [5]; more than 1.2 in [6]. The fold change (FC) is more than 1.2 in data set [7] and 1.7 in data set [9]. In addition, in data set [8], the pEC50 is 6.26.

With `FC(F)(F)c1cccc(Br)c1CSc1nnc(-c2cnccn2)o1`, the fold change (FC) in data set [1], in [2], in [3], in data set [4], in data set [5] and in [6] was more than 1.2 in each case. In addition, the fold change (FC) in [7] was more than 1.2; in data set [9] it was 2.7. Further, in [8], the pEC50 is 6.34.

Regarding `Brc1cccc(Br)c1CSc1nnc(-c2cnccn2)o1`, the fold change (FC) was less than 1.2 in data set [1]; more than 1.2 in data set [2]; more than 1.2 in data set [3]; more than 1.2 in data set [4]; more than 1.2 in data set [5]; less than 1.2 in [6]. In addition, the fold change (FC) in data set [7] was more than 1.2; in [9] it was 2.5; in data set [10], more than 2. Further, the pEC50 in data set [8] is 5.68.

For the compound `Ic1ccccc1CSc1nnc(-c2cnccn2)o1`, the fold change (FC) in data set [6] and in data set [7] was less than 1.2 in each case.

In the case of `Fc1cccc(Cl)c1CSc1nnc(-c2cnccn2)o1`, the fold change (FC) in [1] is less than 1.2; in data set [2] it was less than 1.2; in data set [3] it was less than 1.2; in data set [4] it was more than 1.2; in data set [5], more than 1.2; in data set [6] it was less than 1.2. Moreover, the fold change (FC) in data set [7] was more than 1.2; in [9], 1.55. Also, the pEC50 in data set [8] was 5.96.

`Brc1ccc(Br)c(CSc2nnc(-c3cnccn3)o2)c1`: the fold change (FC) was less than 1.2 in [1]; less than 1.2 in [2]; less than 1.2 in [3]; less than 1.2 in data set [4]; more than 1.2 in [5]; more than 1.2 in data set [6]. For the same compound, the fold change (FC) in data set [7] is more than 1.2; in data set [9] it was 1.9. Moreover, the pEC50 in data set [8] was 5.00.

As for `FC(F)(F)c1ccc(Br)c(CSc2nnc(-c3cnccn3)o2)c1`, the fold change (FC) is less than 1.2 in [1]; more than 1.2 in [2]; more than 1.2 in data set [3]; more than 1.2 in data set [4]; more than 1.2 in [5]; more than 1.2 in data set [6]. The fold change (FC) in data set [7] was more than 1.2; in data set [9], 2.3. Moreover, the pEC50 in data set [8] was 6.22.

As to `Clc1cccc(CSc2nnc(-c3cnccn3)o2)c1Cl`, the fold change (FC) in data set [1] and in [7] was less than 1.2 each time.

As to `Clc1ccccc1CSc1nnc(-c2ccc[nH]2)o1`, the fold change (FC) in data set [1], in data set [2], in data set [3], in data set [4], in [5] and in data set [6] was less than 1.2 in each case. Moreover, the fold change (FC) in [7] is less than 1.2.

As for `N#Cc1ccccc1CSc1nnc(-c2cnccn2)o1`, the fold change (FC) in [6] and in [7] was less than 1.2 in each case.

In the case of `Clc1ccc(CSc2nnc(-c3cnccn3)o2)c(Cl)c1`, the fold change (FC) in data set [1] and in data set [7] was less than 1.2 throughout.

Take `Clc1cccc(Br)c1CSc1nnc(-c2cnccn2)o1`: the fold change (FC) in data set [1] is less than 1.2; in [2] it was more than 1.2; in data set [3], more than 1.2; in [4] it was more than 1.2; in data set [5], more than 1.2; in data set [6], less than 1.2. The figures for the fold change (FC) in data set [7], in [9] and in data set [10] were more than 1.2, 2.9 and more than 2, respectively. The pEC50 in [8] is 5.98.

On to `Clc1ccccc1CNc1nnc(-c2cnccn2)o1`, for which the fold change (FC) in [1], in data set [2], in [3], in [4], in data set [5] and in data set [6] was less than 1.2 each time. For the same compound, the fold change (FC) in data set [7] is less than 1.2.

`CC/C(=C(/CC)c1ccc(O)cc1)c1ccc(O)cc1` [DIETHYLSTILBESTROL]: the solubility kinetic at 24 h in data set [11] amounted to 14.4 µM (≈ 3.85 µg/mL).

For the compound `Fc1cccc(F)c1CSc1nnc(-c2cnccn2)o1`, the fold change (FC) in data set [1] and in data set [7] was less than 1.2 each time.

Regarding `Brc1ccccc1CSc1nnc(-c2cnccn2)o1`, the fold change (FC) in data set [6] and in data set [7] was less than 1.2 throughout.

Regarding `Clc1cccc(Cl)c1CSc1nnc(-c2ccc[nH]2)o1`, the fold change (FC) in data set [1], in [2], in data set [3], in data set [4], in data set [5] and in data set [6] was less than 1.2 in each case. Also, the fold change (FC) in [7] is less than 1.2.

On to `Clc1cccc(Cl)c1CSc1nnc(-c2cnccn2)o1`, for which the fold change (FC) in [1] was less than 1.2; in data set [2] it was less than 1.2; in data set [3], more than 1.2; in data set [4] it was more than 1.2; in [5], more than 1.2; in [6], more than 1.2. Also, the fold change (FC) in data set [7] was more than 1.2; in data set [9] it was 2.07; in [10], more than 2. Also, the pEC50 in [8] was 5.87.

Take `O=C([O-])Cc1ccccc1Nc1c(Cl)cccc1Cl.[Na+]` [DICLOFENAC SODIUM]: the solubility kinetic at 24 h in [11] was 205 µM.

As for `O=c1oc(-c2cnccn2)nn1Cc1ccccc1Cl`, the fold change (FC) in data set [1], in data set [2], in data set [3], in data set [4], in data set [5] and in data set [6] was less than 1.2 in each case. Further, the fold change (FC) in data set [7] is less than 1.2.

Consider `Clc1cccc(Cl)c1CNc1nnc(-c2cnccn2)o1`, for which the fold change (FC) in data set [1], in [2], in data set [3], in [4], in [5] and in [6] was less than 1.2 throughout. Besides, the fold change (FC) in [7] is less than 1.2.

In the case of `Clc1cccc(Cl)c1CSc1nnc(-c2cnccn2)s1`, the fold change (FC) was less than 1.2 in [1]; more than 1.2 in [2]; more than 1.2 in data set [3]; more than 1.2 in data set [4]; more than 1.2 in data set [5]; more than 1.2 in [6]. Besides, the fold change (FC) is more than 1.2 in [7] and 2.4 in data set [9]. For the same compound, the pEC50 in [8] was 6.30. Also, in [11], the solubility kinetic at 24 h worked out at 1.22 µM (≈ 0.433 µg/mL).

As for `Cc1ccccc1CSc1nnc(-c2cnccn2)o1`, the fold change (FC) in data set [6] and in data set [7] was less than 1.2 in each case.

Broadly, the pEC50 is the negative decadic logarithm of the EC50, by convention in mol/L.
